How the values were obtained:
[1] = target: T1, purified recombinant EhADH2 (Entamoeba histolytica, UniProt Q24803); experiment: Substrate specificity and kinetics, ADH activity of purified recombinant EhADH2; type: biochemical; details: for substrate for the enzyme (ADH reactivity): purified recombinant EhADH2, 1 mM NAD+, pH 9.5
T1 construct: a NcoI site at the initiating ATG codon using PCR with the EhADH2 cDNA as the template; made in house; host or cells: E. coli SHH31(DE3) carrying pET/EhADH2
T1 sequence (Q24803 1-870): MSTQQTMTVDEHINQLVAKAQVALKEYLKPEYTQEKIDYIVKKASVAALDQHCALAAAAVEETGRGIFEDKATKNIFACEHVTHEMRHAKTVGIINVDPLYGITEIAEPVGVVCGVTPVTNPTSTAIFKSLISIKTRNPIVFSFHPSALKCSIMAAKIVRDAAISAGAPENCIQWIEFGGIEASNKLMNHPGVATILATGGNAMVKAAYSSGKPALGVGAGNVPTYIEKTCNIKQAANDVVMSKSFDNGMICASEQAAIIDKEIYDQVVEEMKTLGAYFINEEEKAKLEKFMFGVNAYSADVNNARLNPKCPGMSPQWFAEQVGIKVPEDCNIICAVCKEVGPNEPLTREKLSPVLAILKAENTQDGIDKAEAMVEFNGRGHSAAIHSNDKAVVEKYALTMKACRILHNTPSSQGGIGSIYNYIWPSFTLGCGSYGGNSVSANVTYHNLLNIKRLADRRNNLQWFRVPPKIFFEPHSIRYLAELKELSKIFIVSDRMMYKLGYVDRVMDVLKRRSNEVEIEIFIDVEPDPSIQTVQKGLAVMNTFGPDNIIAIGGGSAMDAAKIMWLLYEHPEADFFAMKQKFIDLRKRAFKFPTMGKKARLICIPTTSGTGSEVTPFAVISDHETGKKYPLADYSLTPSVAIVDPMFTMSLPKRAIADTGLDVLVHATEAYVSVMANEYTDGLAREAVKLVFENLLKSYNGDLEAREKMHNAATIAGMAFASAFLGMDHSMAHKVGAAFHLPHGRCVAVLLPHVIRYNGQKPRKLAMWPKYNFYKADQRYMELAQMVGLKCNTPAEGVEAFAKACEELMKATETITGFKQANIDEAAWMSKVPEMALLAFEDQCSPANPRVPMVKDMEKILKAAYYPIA
Experimental: (§1) ADH activity of the supernatant fraction from bacterial lysates, or of the purified recombinant enzyme was assayed spectrophotometrically by measuring the decrease in absorbance at 340 nm following the oxidation of NADH to […] (21). The cuvette contained 6 mM DTT, 5 mM MgSO4, 0.1 mM Fe(NH4)2 (SO4)2, 0.4 mM NADH, 10 mM acetaldehyde, and 0.1 M MOPS-KOH buffer (pH 7.5) to give a final volume of 1.0 ml. MOPS=3-[N-Morpholino]propanesulfonic acid; DTT=dithiothreitol.
(§2) To study the substrate specificity and kinetics of the purified recombinant EhADH2 molecule, the spectrophotometric assay of ADH activity was again utilized, with 5 μg of the purified enzyme in the presence of 50 mM glycine/NaOH buffer (pH 9.5) containing 6 mM DTT, 5 mM MgSO4, 0.1 mM Fe(NH4)2 (SO4)2, 1 mM […], and varying concentrations of the substrate alcohol to be tested (11). The Km and Kcat values expressed were determined using non-linear regression to fit the values for initial velocity and substrate concentration to the Michaelis-Menten equation.

native EhADH2 enzyme = target: T2, native EhADH2 enzyme (Entamoeba histolytica, UniProt Q24803); details: read-out: Km reported for native EhADH2 enzyme; cited from earlier work
T2 construct: essentially identical to that reported for the native EhADH2 enzyme (80 mM) (11)

E. coli AdhE enzyme = E. coli AdhE enzyme (Escherichia coli, UniProt P0A9Q7); details: read-out: Km for the E. coli AdhE enzyme; cited from earlier work
EhADH1 = target: T3, EhADH1 (Entamoeba histolytica, UniProt P35630); details: NADP+-dependent EhADH1; cited from earlier work
T3 sequence (P35630 1-366): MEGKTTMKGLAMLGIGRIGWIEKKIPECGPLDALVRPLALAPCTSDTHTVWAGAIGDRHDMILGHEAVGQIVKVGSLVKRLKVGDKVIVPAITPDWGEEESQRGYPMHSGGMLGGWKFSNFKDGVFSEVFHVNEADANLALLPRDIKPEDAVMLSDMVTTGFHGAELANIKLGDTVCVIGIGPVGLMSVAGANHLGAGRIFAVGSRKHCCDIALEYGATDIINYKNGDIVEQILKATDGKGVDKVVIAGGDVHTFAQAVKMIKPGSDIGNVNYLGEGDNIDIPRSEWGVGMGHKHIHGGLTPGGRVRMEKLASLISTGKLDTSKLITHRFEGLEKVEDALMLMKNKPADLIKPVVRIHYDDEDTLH

recombinant EhADH2 = target: T4, recombinant EhADH2 (Entamoeba histolytica, UniProt Q24803); experiment: Inhibition of purified recombinant EhADH2 enzyme (Ki); type: biochemical; details: read-out: Ki for the recombinant EhADH2 molecule
T4 construct: a NcoI site at the initiating ATG codon using PCR with the EhADH2 cDNA as the template; made in house; host or cells: E. coli SHH31(DE3) carrying pET/EhADH2
T4 sequence (Q24803 1-870): T1 sequence (Q24803 1-870)
Experimental: as §1, §2

[2] = tested on: E. coli SHH31/pMON/EhADH2; experiment: EhADH2 inhibition assay: growth of E. coli SHH31 transformed with pMON/EhADH2 (O.D. at 600 nm); type: cell-based; details: M9 minimal liquid medium, pyrazole 5 to 20 mM, O.D. 600 nm at 24 and 48 hrs
Experimental: E. coli and E. histolytica strains and culture conditions. Conventional E. coli strains, DH5α, BL21(DE3), and SHH31 (Δadh zch::Tn10 fadR met tyrT) (15) were used for transformation and the expression of recombinant EhADH2. Aerobic cultures were grown in LB medium with agitation at 37° C. For anaerobic growth, bacteria were incubated in anaerobic jars, BBL®GasPak® System under an H2 -CO2 atmosphere generated by BBL GAS PAK Anaerobic System Envelopes (Becton Dickinson, Cockeysville, Md.).
Anaerobic indicator strips were used to ensure anaerobic conditions. M9 minimal medium used for anaerobic growth was supplemented with glucose at 0.25%, thiamine (1 mM), CaCl2 (0.1 mM), MgSO4 (1.2 mM), and the following trace minerals: Fe(50 μM), Se(5 μM), Mo(5 μM), Mn(5 μM) (16).
Anaerobic liquid cultures were grown without agitation in tubes inside the anaerobic jars at 37° C. Solid media contained 1.5% Bacto Agar (Difco, Detroit, Mich.). […]
(§3) E. coli SHH31 transformed with pMON/EhADH2 were inoculated into M9 minimal liquid medium and grown under anaerobic or aerobic conditions in the presence or absence of pyrazole (Sigma Chemical Co., St. Louis, Mo.) at concentrations of 5 to 20 mM. Growth was monitored by determining the optical density (O.D.) at 600 nm at 24 and 48 hrs post-inoculation. […] Viable trophozoites were counted using a hemacytometer at days 2 and 4, and the number of trophozoites/ml recorded.

[3] = tested on: E. histolytica HM1:IMSS trophozoites; experiment: Inhibition of E. histolytica growth (viable trophozoite count); type: cell-based, Entamoeba histolytica; design: effect on E. histolytica growth: dose or concentration left out as unconfirmed
Experimental: Anaerobic liquid cultures were grown without agitation in tubes inside the anaerobic jars at 37° C. Solid media contained 1.5% Bacto Agar (Difco, Detroit, Mich.). Trophozoites of E. histolytica HM1:IMSS were cultured axenically in BYI-S-33 medium by conventional procedure as previously described (17).
as §3

[4] = substrate: NC(=O)C1=CN([C@@H]2O[C@H](COP(=O)(O)OP(=O)(O)OC[C@H]3O[C@@H](n4cnc5c(N)ncnc54)[C@H](O)[C@@H]3O)[C@@H](O)[C@H]2O)C=CC1; experiment: ALDH activity kinetics of purified recombinant EhADH2; type: biochemical, Entamoeba histolytica; details: other: reaction acetyl-CoA + NADH; pH 9.5
Experimental: (§4) ALDH activity was assayed using the same method, with the substitution of 0.1 mM acetyl-CoA for acetaldehyde in the reaction buffer. A unit of enzyme activity is defined as the micromoles of product formed per min of incubation at room temperature.
as §2

[5] = substrate: CC(=O)SCCNC(=O)CCNC(=O)[C@H](O)C(C)(C)COP(=O)(O)OP(=O)(O)OC[C@H]1O[C@@H](n2cnc3c(N)ncnc32)[C@H](O)[C@@H]1OP(=O)(O)O; experiment: as above; type: biochemical, Entamoeba histolytica; details: other: reaction acetyl-CoA + NADH; pH 9.5
Experimental: as §4, §2

[6] = substrate: CCO; experiment: Substrate specificity and kinetics, ADH activity of purified recombinant EhADH2; type: biochemical, Entamoeba histolytica; details: other: reaction ethanol + NAD+
Experimental: (§5) To study the substrate specificity and kinetics of the purified recombinant EhADH2 molecule, the spectrophotometric assay of ADH activity was again utilized, with 5 μg of the purified enzyme in the presence of 50 mM glycine/NaOH buffer (pH 9.5) containing 6 mM DTT, 5 mM MgSO4, 0.1 mM Fe(NH4)2 (SO4)2, 1 mM AND^+, and varying concentrations of the substrate alcohol to be tested (11). The Km and Kcat values expressed were determined using non-linear regression to fit the values for initial velocity and substrate concentration to the Michaelis-Menten equation.

[7] = substrate: CC=O; experiment: as above; type: biochemical, Entamoeba histolytica; details: other: reaction acetaldehyde + NADH
Experimental: as §5

[8] = substrate: CCCO; experiment: as above; type: biochemical, Entamoeba histolytica; details: other: reaction 1-propanol + NAD+
Experimental: as §5

[9] = substrate: NC(=O)C1=CN([C@@H]2O[C@H](COP(=O)(O)OP(=O)(O)OC[C@H]3O[C@@H](n4cnc5c(N)ncnc54)[C@H](O)[C@@H]3O)[C@@H](O)[C@H]2O)C=CC1; experiment: as above; type: biochemical, Entamoeba histolytica; details: other: reaction acetaldehyde + NADH
Experimental: as §5

Chain of E. coli AdhE enzyme (P0A9Q7 whole entry): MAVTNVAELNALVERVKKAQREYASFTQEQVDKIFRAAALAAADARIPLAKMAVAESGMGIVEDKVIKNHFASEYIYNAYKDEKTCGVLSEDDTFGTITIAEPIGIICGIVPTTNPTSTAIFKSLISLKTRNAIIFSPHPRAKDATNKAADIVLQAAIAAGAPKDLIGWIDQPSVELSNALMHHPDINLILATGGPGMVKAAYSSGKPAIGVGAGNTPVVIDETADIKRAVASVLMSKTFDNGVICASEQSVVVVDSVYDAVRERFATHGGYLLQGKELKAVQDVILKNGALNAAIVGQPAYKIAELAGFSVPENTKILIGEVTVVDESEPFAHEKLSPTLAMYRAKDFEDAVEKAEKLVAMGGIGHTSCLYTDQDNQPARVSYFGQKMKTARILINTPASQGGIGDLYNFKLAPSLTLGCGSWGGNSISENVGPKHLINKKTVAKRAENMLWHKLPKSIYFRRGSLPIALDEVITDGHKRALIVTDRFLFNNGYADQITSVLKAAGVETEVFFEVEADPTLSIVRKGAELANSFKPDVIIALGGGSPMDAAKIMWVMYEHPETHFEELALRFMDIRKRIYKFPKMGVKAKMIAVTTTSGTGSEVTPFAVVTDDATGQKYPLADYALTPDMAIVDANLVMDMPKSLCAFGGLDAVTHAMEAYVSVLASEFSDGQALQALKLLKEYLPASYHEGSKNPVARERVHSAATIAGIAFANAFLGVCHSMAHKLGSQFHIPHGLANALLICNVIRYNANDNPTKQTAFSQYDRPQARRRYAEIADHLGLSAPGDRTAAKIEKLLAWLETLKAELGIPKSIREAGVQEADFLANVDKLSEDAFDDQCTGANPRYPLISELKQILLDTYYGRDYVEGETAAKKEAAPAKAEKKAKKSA

Molecule `NC(=O)c1ccc[n+]([C@@H]2O[C@H](COP(=O)(O)OP(=O)(O)OC[C@H]3O[C@@H](n4cnc5c(N)ncnc54)[C@H](O)[C@@H]3O)[C@@H](O)[C@H]2O)c1` [NAD^+] has a Km ([1]; reaction 1-propanol + NAD+) of 250 µM and a Km ([1]; reaction ethanol + NAD+) of 550 µM.

In the case of `CC=O` [acetaldehyde], the Km (native EhADH2 enzyme) is listed as 150 µM.

In the case of `CCO` [ethanol], the Km (native EhADH2 enzyme) is listed as 80000 µM and the Km (E. coli AdhE enzyme) is listed as 30000 µM.

With `CC(C)O` [isopropanol] the “substrate for the enzyme (ADH reactivity)” value (“substrate for the enzyme” for short) [1] was “No reactivity”.

In the case of `CO` [methanol], the “substrate for the enzyme” value [1] is reported as “neither retinol nor methanol were substrates”.

In the case of `c1cn[nH]c1` [pyrazole], the Ki (EhADH1) is listed as 0.0014 mM, the Ki (recombinant EhADH2) is listed as 7.24 mM and the “effect on growth under aerobic conditions” value ([2]; aerobic) is listed as “much reduced effect”. The “inhibition of anaerobic growth of SHH31/pMON/EhADH2” value ([2]; anaerobic) was “in a dose-dependent manner significantly inhibited”, the “effect on E. histolytica growth” value [3] was “no effect” and the “inhibition of growth of E. histolytica trophozoites” value ([3]; concentration of 20 to 40 mM, viable trophozoites at days 2 and 4) was “significantly inhibited amebic growth”.

In the case of `CC1=C(/C=C/C(C)=C/C=C/C(C)=C/CO)C(C)(C)CCC1` [retinol], the “substrate for the enzyme” value [1] is reported as “neither retinol nor methanol were substrates”.

In the case of `CCC(C)O` (stereo not drawn) [sec-butanol], the “substrate for the enzyme” value [1] is reported as “No reactivity”.

B1: purified recombinant EhADH2 (Entamoeba histolytica HM-1:IMSS) (protein)
chain: T1 sequence (Q24803 1-870)
notes: a NcoI site at the initiating ATG codon using PCR with the EhADH2 cDNA as the template; made in house; host or cells: E. coli SHH31(DE3) carrying pET/EhADH2
B1 showed a Km [4] of 170 µM, a Km [5] of 40 µM and a Km [6] of 85000 µM. For the same molecule, the Km [7] was 2900 µM, the Km [8] was 40000 µM and the Km [9] was 280 µM.
